Experimental data taken from patent publication US9221795B2, “Phosphatidylinositol 3-kinase inhibitors” (Gilead Sciences, Inc., priority 2013, dated 2015).

What was measured:
PI3Kδ = PI3Kδ (Homo sapiens (Human), UniProt O00329); test: Enzymatic activity of PI3K isoforms, TR-FRET assay (PI3Kδ); type: biochemical; conditions: 2× Km ATP, geometric mean if more than one value
Experimental: Enzymatic activity of the class I PI3K isoforms in the presence of the compounds of Table 1 and Compounds X, Y and Z was measured using a time-resolved fluorescence resonance energy transfer (TR-FRET) assay. The TR-FRET assay was used to monitor formation of the product 3,4,5-inositol triphosphate molecule (PIP3) as it competed with fluorescently labeled PIP3 for binding to the GRP-1 pleckstrin homology domain protein. An increase in […] product results in a decrease in TR-FRET signal as the labeled fluorophore is displaced from the GRP-1 protein binding site.
Class I PI3K isoforms were expressed and purified as heterodimeric recombinant proteins. All assay reagents and buffers for the TR-FRET assay were purchased from Millipore. PI3K isoforms were assayed under initial rate conditions in the presence of 25 mM Hepes (pH 7.4), and 2× Km ATP (75-500 μM), 2 μM PIP2, 5% glycerol, 5 mM MgCl2, 50 mM NaCl, 0.05% (v/v) Chaps, 1 mM dithiothreitol, 1% (v/v) DMSO at the following concentrations for each isoforms: PI3Kα, PI3Kβ, and PI3Kδ between 25 and 50 pM, and PI3Kγ at 2 nM. After an assay reaction time of 30 minutes at 25° C., reactions were terminated with a final concentration of 10 mM EDTA, 10 nM labeled-PIP3, and 35 nM Europium labeled GRP-1 detector protein before reading TR-FRET on an Envision plate reader (Ex: 340 nm; Em: 615/665 nm; […] delay and 500 μs read window).
Data were normalized based on positive ([…] wortmanin) and negative (DMSO) controls. α, β, δ, and γ IC50 values were calculated from the fit of the dose-response curves to a four-parameter equation. All IC50 values represent geometric mean values if more than one value was obtained. IC50 values were reported in units of nM.

basophils = test: Basophil activation in human whole blood (Flow2 CAST kit, CD63 flow cytometry); type: cell-based; conditions: Homo sapiens, human whole blood, basophils activated with anti-FcεRI mAb or fMLP, percent CD63 positive cells
Experimental: Effect on basophil activation was measured in human whole blood using the Flow2 CAST® kit (Buhlmann Laboratories AG, Baselstrasse, Switzerland) following the protocol provided by the manufacturer with minor modifications. Human whole blood was collected into K2-EDTA venipuncture tubes. Whole blood samples were treated with either DMSO (0.3% final) or a serial dilution of compounds in DMSO for 60 minutes at 37° C. Basophils were then activated either with anti-FcεRI mAb or with fMLP. To activate basophils using the anti-FcεRI mAb; 50 μL of whole blood was mixed with 110 μL of stimulation buffer (B-BAT-STB) and 20 μl of anti-FcεRI (B-BAT-STCON). To activate basophils with fMLP; 50 μL of whole blood was mixed with 80 μL of stimulation buffer (B-BAT-STB) and 50 μL of fMLP (B-CCR-FMLP). Stimulation buffer was used as a negative control. 20 μL of the staining reagent (combination of anti-human CD63-FITC and anti-human CCR3-PE mAbs) was then added to each tube. The tubes were mixed gently and incubated for 25 minutes at 37° C. Subsequently, erythrocytes were lysed and fixed by the addition of 2 mL of lysing solution (B-BAT-LYR) for 10 minutes at room temperature. Cells were pelleted by centrifugation at 1200 rpm for 10 minutes at room temperature in a swing-out rotor. Supernatant was aspirated and cell pellet resuspended in 400 μL of wash buffer. Flow cytometric analysis of the basophil activation was performed on a FC500MPL flow cytometer (Beckman Coulter Inc., Fullerton, Calif.). CCR3-staining and side scatter were applied to gate at least 200 basophils that expressed a high density of CCR3. The percent CD63 positive cells within the gated basophil population were determined in different treatment groups and normalized to the vehicle control (0.3% DMSO) with anti-FcεRI mAb of fMLP stimulus as 100%. Final compound concentration was adjusted to correct for dilution effect of added reagents. The EC50 values were calculated from the analysis of the dose-response curves to a four-parameter equation.

PI3Kδ, sequence (O00329 whole entry, the tested form may be a part, canonical isoform): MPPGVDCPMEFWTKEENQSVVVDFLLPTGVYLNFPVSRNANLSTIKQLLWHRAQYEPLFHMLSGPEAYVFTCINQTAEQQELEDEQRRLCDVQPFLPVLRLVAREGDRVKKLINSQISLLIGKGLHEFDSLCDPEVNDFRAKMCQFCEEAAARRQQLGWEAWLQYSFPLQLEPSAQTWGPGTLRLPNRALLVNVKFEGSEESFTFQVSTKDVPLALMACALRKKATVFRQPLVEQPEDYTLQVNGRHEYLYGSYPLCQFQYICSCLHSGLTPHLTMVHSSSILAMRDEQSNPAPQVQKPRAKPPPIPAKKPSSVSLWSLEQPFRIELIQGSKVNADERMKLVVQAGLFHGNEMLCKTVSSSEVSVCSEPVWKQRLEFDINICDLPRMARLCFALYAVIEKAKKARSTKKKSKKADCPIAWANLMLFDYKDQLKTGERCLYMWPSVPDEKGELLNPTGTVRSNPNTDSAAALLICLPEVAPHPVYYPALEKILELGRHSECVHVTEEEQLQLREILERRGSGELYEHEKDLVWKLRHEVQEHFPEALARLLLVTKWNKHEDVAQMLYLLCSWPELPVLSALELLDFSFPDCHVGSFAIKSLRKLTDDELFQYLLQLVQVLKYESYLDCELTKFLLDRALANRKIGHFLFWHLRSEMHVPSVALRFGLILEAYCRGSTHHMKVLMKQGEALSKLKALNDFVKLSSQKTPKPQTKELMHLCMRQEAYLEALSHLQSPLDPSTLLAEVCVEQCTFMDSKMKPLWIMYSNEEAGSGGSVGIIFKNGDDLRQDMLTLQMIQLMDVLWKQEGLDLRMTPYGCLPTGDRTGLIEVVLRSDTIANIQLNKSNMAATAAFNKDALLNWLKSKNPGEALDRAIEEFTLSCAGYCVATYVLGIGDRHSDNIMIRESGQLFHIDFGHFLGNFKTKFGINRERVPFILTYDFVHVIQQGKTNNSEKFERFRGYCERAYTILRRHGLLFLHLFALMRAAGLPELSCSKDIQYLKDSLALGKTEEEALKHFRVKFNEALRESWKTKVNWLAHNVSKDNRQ
PI3Kδ, sequence (P27986 whole entry partner, the tested form may be a part, canonical isoform): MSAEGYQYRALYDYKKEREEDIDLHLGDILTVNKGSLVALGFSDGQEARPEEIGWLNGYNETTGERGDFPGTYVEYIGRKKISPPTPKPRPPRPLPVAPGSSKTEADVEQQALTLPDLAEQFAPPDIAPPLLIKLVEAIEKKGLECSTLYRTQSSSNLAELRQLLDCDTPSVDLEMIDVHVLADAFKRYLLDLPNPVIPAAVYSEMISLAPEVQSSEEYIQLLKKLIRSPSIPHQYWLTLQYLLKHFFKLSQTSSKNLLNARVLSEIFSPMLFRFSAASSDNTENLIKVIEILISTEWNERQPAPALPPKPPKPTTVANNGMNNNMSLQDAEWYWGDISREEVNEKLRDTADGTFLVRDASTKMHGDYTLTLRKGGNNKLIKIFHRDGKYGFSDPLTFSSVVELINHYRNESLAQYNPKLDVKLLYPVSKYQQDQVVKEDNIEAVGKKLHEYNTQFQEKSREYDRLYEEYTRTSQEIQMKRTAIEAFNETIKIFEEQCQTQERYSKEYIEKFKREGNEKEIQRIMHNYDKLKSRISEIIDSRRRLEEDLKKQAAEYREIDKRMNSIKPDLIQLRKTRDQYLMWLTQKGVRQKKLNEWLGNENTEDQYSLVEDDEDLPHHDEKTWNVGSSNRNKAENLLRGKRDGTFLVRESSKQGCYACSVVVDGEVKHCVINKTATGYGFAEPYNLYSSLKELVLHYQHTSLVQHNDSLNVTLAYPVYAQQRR

Q: How did the IC50 (PI3Kδ) turn out when `N#Cc1c(N)nc(N)nc1N[C@@H](CC1CC1)c1nc2cccc(Cl)c2c(=O)n1-c1cccnc1` [Compound 4, (S)-2,4-diamino-6-(1-(5-chloro-4-oxo-3-(pyridin-3-yl)-3,4-dihydroquinazolin-2-yl)-2-cyclopropylethylamino)pyrimidine-5-carbonitrile] was run?
A: The IC50 was 5 nM.

Q: What about the EC50 (basophils; class symbol) of the same compound?
A: The EC50 was 10 to 50 nM.

Q: What about the EC50 (basophils; geometric mean) of the same compound?
A: Its EC50 is 22 nM.

Q: What does the source list for `N#Cc1c(N)nc(N)nc1N[C@H](c1nc2ccc(F)c(Cl)c2c(=O)n1-c1cccnc1)C1CC1` [Compound 37, (S)-2,4-diamino-6-((5-chloro-6-fluoro-4-oxo-3-(pyridin-3-yl)-3,4-dihydroquinazolin-2-yl)(cyclopropyl)methylamino)pyrimidine-5-carbonitrile]?
A: IC50 (PI3Kδ): 5 nM; EC50 (basophils; class symbol): 10 to 50 nM; EC50 (basophils; geometric mean): 16 nM

Q: With `Cc1cccc2nc([C@H](C)Nc3nc(N)nc(N)c3C#N)n(-c3cccnc3)c(=O)c12` [Compound 7, (S)-2,4-diamino-6-(1-(5-methyl-4-oxo-3-(pyridin-3-yl)-3,4-dihydroquinazolin-2-yl)ethylamino)pyrimidine-5-carbonitrile] as the compound, how does the IC50 (PI3Kδ) read?
A: The IC50 was 0.4 nM.

Q: What about the EC50 (basophils; class symbol) of the same compound?
A: Its EC50 is less than 1 nM.

Q: And the EC50 (basophils; geometric mean)?
A: The EC50 was 0.3 nM.

Q: How did the IC50 (PI3Kδ) turn out when `C[C@H](Nc1nc(N)nc(N)c1C#N)c1nc2cccc(Cl)c2c(=O)n1-c1cncc(C(F)(F)F)c1` [Compound 18, (S)-2,4-diamino-6-(1-(5-chloro-4-oxo-3-(5-(trifluoromethyl)pyridin-3-yl)-3,4-dihydroquinazolin-2-yl)ethylamino)pyrimidine-5-carbonitrile] was run?
A: The IC50 was 18 nM.

Q: And the EC50 (basophils; class symbol)?
A: Its EC50 is 10 to 50 nM.

Q: And the EC50 (basophils; geometric mean)?
A: The EC50 was 22 nM.

Q: With `C[C@H](Nc1nc(N)nc(N)c1C#N)c1nc2cccc(C#N)c2c(=O)n1-c1cccnc1` [Compound 10, (S)-2-(1-((2,6-diamino-5-cyanopyrimidin-4-yl)amino)ethyl)-4-oxo-3-(pyridin-3-yl)-3,4-dihydroquinazoline-5-carbonitrile] as the compound, how does the IC50 (PI3Kδ) read?
A: Its IC50 is 9 nM.

Q: What about the EC50 (basophils; class symbol) of the same compound?
A: The EC50 was 10 to 50 nM.

Q: What about the EC50 (basophils; geometric mean) of the same compound?
A: Its EC50 is 17 nM.

Q: With `Cc1c(F)cncc1-n1c([C@H](C)Nc2nc(N)nc(N)c2C#N)nc2cccc(F)c2c1=O` (atropisomer, axis not shown) [Compound 68, (S)-2,4-diamino-6-((1-(5-fluoro-3-(5-fluoro-4-methylpyridin-3-yl)-4-oxo-3,4-dihydroquinazolin-2-yl)ethyl)amino)pyrimidine-5-carbonitrile] as the compound, how does the IC50 (PI3Kδ) read?
A: Its IC50 is 7 nM.

Q: With `Cc1c(F)cncc1-n1c([C@@H](Nc2nc(N)nc(N)c2C#N)C2CC2)nc2cccc(Cl)c2c1=O` (atropisomer, axis not shown) [Compound 69, (S)-2,4-diamino-6-(((5-chloro-3-(5-fluoro-4-methylpyridin-3-yl)-4-oxo-3,4-dihydroquinazolin-2-yl)(cyclopropyl)methyl)amino)pyrimidine-5-carbonitrile] as the compound, how does the IC50 (PI3Kδ) read?
A: Its IC50 is 60 nM.

Q: `C[C@H](Nc1nc(N)nc(N)c1C#N)c1nc2c(F)ccc(Br)c2c(=O)n1-c1cccnc1` [Compound 64, (S)-2,4-diamino-6-((1-(5-bromo-8-fluoro-4-oxo-3-(pyridin-3-yl)-3,4-dihydroquinazolin-2-yl)ethyl)amino)pyrimidine-5-carbonitrile] was tested. Which IC50 (PI3Kδ) did it give?
A: Its IC50 is 0.6 nM.

Q: For `CC(C)C[C@H](Nc1nc(N)nc(N)c1C#N)c1nc2cccc(Cl)c2c(=O)n1-c1cncc(F)c1` [Compound 57, (S)-2,4-Diamino-6-((1-(5-chloro-3-(5-fluoropyridin-3-yl)-4-oxo-3,4-dihydroquinazolin-2-yl)-3-methylbutyl)amino)pyrimidine-5-carbonitrile], which IC50 (PI3Kδ) is on record?
A: Its IC50 is 14 nM.

Q: With `Cc1c(F)cncc1-n1c([C@@H](Nc2nc(N)nc(N)c2C#N)C2CC2)nc2c(F)ccc(Cl)c2c1=O` (atropisomer, axis not shown) [Compound 66, (S)-2,4-Diamino-6-(((5-chloro-8-fluoro-3-(5-fluoro-4-methylpyridin-3-yl)-4-oxo-3,4-dihydroquinazolin-2-yl)(cyclopropyl)methyl)amino)pyrimidine-5-carbonitrile] as the compound, how does the IC50 (PI3Kδ) read?
A: The IC50 was 3 nM.

Q: Which IC50 (PI3Kδ) does the source give for `N#Cc1c(N)nc(N)nc1N[C@H](c1nc2c(C#N)cc(F)cc2c(=O)n1-c1cncc(F)c1)C1CC1` [Compound 56, (S)-2-(Cyclopropyl((2,6-diamino-5-cyanopyrimidin-4-yl)amino)methyl)-6-fluoro-3-(5-fluoropyridin-3-yl)-4-oxo-3,4-dihydroquinazoline-8-carbonitrile] here?
A: Its IC50 is 30 nM.

Q: `C[C@H](Nc1nc(N)nc(N)c1Cl)c1nc2cccc(Cl)c2c(=O)n1-c1cccnc1` [Compound 53, (S)-5-Chloro-2-(1-((2,6-diamino-5-chloropyrimidin-4-yl)amino)ethyl)-3-(pyridin-3-yl)quinazolin-4(3H)-on] was tested. Which IC50 (PI3Kδ) did it give?
A: The IC50 was 4 nM.

Q: How did the IC50 (PI3Kδ) turn out when `CC[C@H](Nc1nc(N)nc(N)c1C#N)c1nc2c(C#N)cc(F)cc2c(=O)n1-c1cncc(F)c1` [Compound 55, (S)-2-(1-((2,6-Diamino-5-cyanopyrimidin-4-yl)amino)propyl)-6-fluoro-3-(5-fluoropyridin-3-yl)-4-oxo-3,4-dihydroquinazoline-8-carbonitrile] was run?
A: The IC50 was 60 nM.

Q: For `CC[C@H](Nc1nc(N)nc(N)c1C#N)c1nc2cccc(Cl)c2c(=O)n1-c1cncc(F)c1C` (atropisomer, axis not shown) [Compound 71, (S)-2,4-diamino-6-((1-(5-chloro-3-(5-fluoro-4-methylpyridin-3-yl)-4-oxo-3,4-dihydroquinazolin-2-yl)propyl)amino)pyrimidine-5-carbonitrile], which IC50 (PI3Kδ) is on record?
A: The IC50 was 49 nM.

Q: With `C[C@H](Nc1nc(N)nc(N)c1C#N)c1nc2c(C#N)cc(F)cc2c(=O)n1-c1cccnc1` [Compound 54, (S)-2-(1-((2,6-Diamino-5-cyanopyrimidin-4-yl)amino)ethyl)-6-fluoro-4-oxo-3-(pyridin-3-yl)-3,4-dihydroquinazoline-8-carbonitrile] as the compound, how does the IC50 (PI3Kδ) read?
A: The IC50 was 10 nM.

Q: `Cc1ccncc1-n1c([C@H](C)Nc2nc(N)nc(N)c2C#N)nc2cccc(C(F)(F)F)c2c1=O` (atropisomer, axis not shown) [Compound 79, (S)-2,4-Diamino-6-((1-(3-(4-methylpyridin-3-yl)-4-oxo-5-(trifluoromethyl)-3,4-dihydroquinazolin-2-yl)ethyl)amino)pyrimidine-5-carbonitrile] was tested. Which IC50 (PI3Kδ) did it give?
A: The IC50 was 2 nM.

Q: How did the IC50 (PI3Kδ) turn out when `Cc1c(F)cncc1-n1c([C@H](C)Nc2nc(N)nc(N)c2C#N)nc2ccc(F)cc2c1=O` (atropisomer, axis not shown) [Compound 75, (S)-2,4-diamino-6-((1-(6-fluoro-3-(5-fluoro-4-methylpyridin-3-yl)-4-oxo-3,4-dihydroquinazolin-2-yl)ethyl)amino)pyrimidine-5-carbonitrile] was run?
A: The IC50 was 510 nM.

Q: Which IC50 (PI3Kδ) does the source give for `C[C@H](Nc1nc(N)nc(N)c1Cl)c1nc2cccc(C#N)c2c(=O)n1-c1cccnc1` [Compound 63, (S)-2-(1-((2,6-diamino-5-chloropyrimidin-4-yl)amino)ethyl)-4-oxo-3-(pyridin-3-yl)-3,4-dihydroquinazoline-5-carbonitrile] here?
A: The IC50 was 95 nM.

Q: `C[C@H](Nc1nc(N)nc(N)c1Cl)c1nc2cccc(Cl)c2c(=O)n1-c1cncc(F)c1` [Compound 51, (S)-5-Chloro-2-(1-((2,6-diamino-5-chloropyrimidin-4-yl)amino)ethyl)-3-(5-fluoropyridin-3-yl)quinazolin-4(3h)-one] was tested. Which IC50 (PI3Kδ) did it give?
A: Its IC50 is 7 nM.

Q: Which IC50 (PI3Kδ) does the source give for `Cc1c(F)cncc1-n1c([C@H](C)Nc2nc(N)nc(N)c2C#N)nc2c(F)ccc(Cl)c2c1=O` (atropisomer, axis not shown) [Compound 73, (S)-2,4-diamino-6-((1-(5-chloro-8-fluoro-3-(5-fluoro-4-methylpyridin-3-yl)-4-oxo-3,4-dihydroquinazolin-2-yl)ethyl)amino)pyrimidine-5-carbonitrile] here?
A: Its IC50 is 59 nM.
